From US20060160915A1, “Photocurable compositions” (priority 2003, published 2006) come the findings set out here.

This data set is described as follows: Solubility properties in acrylate monomers. Type of data set: physicochemical. The note with it: 0.2 g in 2.5 g TMP(3EO)TA, 40° C. How it is done: For determining the solubility properties in acrylate monomers, which are customarily used for the preparation of overprint varnishes and UV-curable inks, 0.2 g each of the compounds obtained according to Examples 1 and 2 is stirred into 2.5 g of the acrylate monomer in question. In dipropylene glycol diacrylate (DPGDA) both compounds have dissolved within a period of 15 minutes at room temperature. In ethoxylated trimethylolpropane triacrylate (TMP(3EO)TA) the compound according to Example 2 dissolves within a period of 10 minutes at 40° C., while the compound according to Example 1 dissolves after only 4 minutes' heating at 40° C.

Take `Cc1cccc(C(=O)c2ccc(-c3ccccc3)cc2)c1` [Example 1, 3-methyl-4′-phenylbenzophenone]: the “time to dissolve in ethoxylated trimethylolpropane triacrylate (TMP(3EO)TA)” value stood at 4 min. Take `Cc1cc(C)c(C(=O)c2ccc(-c3ccccc3)cc2)c(C)c1` [Example 2, 2,4,6-trimethyl-4′-phenylbenzophenone]: the “time to dissolve in ethoxylated trimethylolpropane triacrylate (TMP(3EO)TA)” value is at most 10 min.
